One assay has as its system mouse. Briefly: Mouse bone formation assay, micro-CT after complete dosing schedule. It counts as in vivo. To be noted: versus control solution. The source says:
(§1) Compounds useful in the methods of the present invention can be identified via a variety of methods known to one of skill in the art. Several exemplary methods for identifying such antagonists are described herein, including cell-based and in vitro techniques (Journal of Bone and Mineral Research 2006, 21(11), 1738-1749). A general method of identifying SOST antagonists involves evaluating the effects of antagonist candidates on bone formation under controlled conditions. Preferably bone formation is determined using micro-CT techniques on live animals. Preferred animals include rodents, more preferred are primates. Femur, tibia and vertebrae bones are particularly useful subjects for such study.
Briefly, the test animal is treated with a predetermined dose of a SOST antagonist candidate. […]
Once the dosing schedule has been completed, both test and control animals are examined to determine the quantity of bone formation present. […] Where necessary, levels of bone formation can be calculated by determining the volume of bone formation present in each animal. […]
For example, the mouse test animal is treated with a predetermined dose of a SOST antagonist candidate for a complete dosing schedule. […] Once the dosing schedule has been completed, both test and control animals are examined with sacrifice using micro-CT to determine the quantity of bone formation present.

For another assay, the system named is Wnt pathway. Briefly: Modulation of the Wnt pathway (FIGS. 1 and 2). As to conditions: doses of 2.5 ng (low), 60 ng (medium), 125 ng (high).
Excerpt: as §1

Assay [1] deals with C57BL/6 mice. Briefly: Serum osteocalcin bone formation marker, EIA Elisa, in treated mice. As to conditions: four month old male C57BL/6 mice, 5 mg/kg, daily i.p. for 30 days. It counts as in vivo, mouse. The source says: […] Study endpoints included a biochemical marker of bone formation; osteocalcin, measured by EIA Elisa, and measurement of tibia trabecular bone volume by mico-CT analysis.

The test system of assay [2] is C57BL/6 mice. Briefly: Bone volume in treated mice by pQCT / micro-CT analysis. The class given is in vivo, mouse. As to conditions: four month old male C57BL/6 mice, 0.1 mg/kg, daily i.p. for 30 days. The method, then: Four month old male C57BL/6 mice were treated daily with saline vehicle or the sclerostin inhibitor of trimeprazine tartrate at 0.1 mg/kg (via i.p) for 30 days. […]

Take `CCN(CC)C(C)CN1c2ccccc2Sc2ccccc21` (stereo not drawn) [ethopropazine]: the “bone growth (quantity of bone formation present)” value with mouse is “promoting bone growth”. The “modulation of the Wnt pathway to promote bone growth” value with Wnt pathway is reported as “modulating the Wnt pathway”.
As to trimeprazine tartrate, the “percent increase in serum osteocalcin bone formation marker over saline controls” value with C57BL/6 mice [1] came out at 46%. Moreover, the “increase in bone volume for the femur over baseline controls” value in the assay on C57BL/6 mice [2] is “about 8%”.
For the compound `CC(CN(C)C)CN1c2ccccc2Sc2ccccc21` (stereo not drawn) [trimeprazine], the “bone growth (quantity of bone formation present)” value in the assay with mouse is recorded as “promoting bone growth”. In addition, in the assay with Wnt pathway, the “modulation of the Wnt pathway to promote bone growth” value is “modulating the Wnt pathway”.

(Values after US20100055183A1 (OsteoGeneX Inc., priority 2008, published 2010).)
